For five compounds, IC50, brain penetration and off-target carboanhydrase activity results are on record in US20240408068A1, “Helicase Primase Inhibitors For Treating Cancer In A Combination Therapy With Oncolytic Viruses” (priority 2018, published 2024).

One data set deals with HSV-2. Description: In vitro activity, HSV-2 infected Vero cells. It counts as cell-based. On the procedure: (§1) The in vitro activity of the new compounds was measured as described in WO2017/174640 and in WO2019/068817.
In a further data set the test system is HSV-1. As to the kind of experiment: In vitro activity, HSV-1 infected Vero cells. It counts as cell-based. On the procedure: as §1
Another data set concerns HSV-1 ACV resistant. Description: In vitro activity, HSV-1 ACV resistant. It counts as cell-based. The note with it: Human alphaherpesvirus 1. The protocol:
as §1

The conditions of data set [1]: described in WO2019/068817; cited from earlier work.
A further data set relates to carboanhydrase. The note with it: described in WO2019/068817; cited from earlier work.

Like-named read-outs stand apart in the source and are kept apart here.

What is called IC50 is the midpoint of a concentration-inhibition curve. Lower therefore signals greater potency in that assay. Consider `Cc1nc(N(C)C(=O)C2Cc3ccc(-c4cc(F)ccc4F)cc3C2)sc1S(C)(=N)=O` (racemic) [Example 4, 5-(2,5-Difluorophenyl)-N-methyl-N-(4-methyl-5-(S-methylsulfonimidoyl)thiazol-2-yl)-2,3-dihydro-1H-indene-2-carboxamide], for which the IC50 turned out to be 1.5 µM in the data set on HSV-2 (Human alphaherpesvirus 2, Vero); 0.75 µM in the data set with HSV-1 (Human alphaherpesvirus 1, Vero); 0.75 µM with HSV-1 ACV resistant.

As to `Cc1nc(N(C)C(=O)Cc2ccc(-c3cc(F)ccc3F)cc2)sc1[S@@](C)(=N)=O` [drawing 1], the brain penetration entry in data set [1] is recorded as “improved brain penetration”. In addition, in the data set with carboanhydrase, the off-target carboanhydrase activity result is recorded as “no off-target carboanhydrase activity”.

On to `Cc1nc(N(C)C(=O)C2Cc3ccc(-c4cc(F)ccc4F)cc3C2)sc1S(N)(=O)=O` (racemic) [Example 1, 5-(2,5-Difluorophenyl)-N-methyl-N-(4-methyl-5-sulfamoylthiazol-2-yl)-2,3-di-hydro-1H-indene-2-carboxamide], for which the half-inhibitory concentration (IC50) in the data set with HSV-2 (Human alphaherpesvirus 2, Vero) turned out to be 0.05 µM; with HSV-1 (Human alphaherpesvirus 1, Vero) it was 0.016 µM; in the data set with HSV-1 ACV resistant it was 0.016 µM.

On to `Nc1nc2c(ncn2COCCO)c(=O)[nH]1` [Acyclovir, reference compound], for which the IC50 with HSV-2 (Human alphaherpesvirus 2, Vero) is 0.5 to 3 µM; in the data set with HSV-1 (Human alphaherpesvirus 1, Vero), 0.5 to 3 µM; with HSV-1 ACV resistant, above 25 µM.

With `Cc1nc(N(C)C(=O)C2Cc3ccc(-c4cc(F)ccc4F)cc3C2)sc1S(C)(=N)=O` (single isomer, unassigned) [Example 9, 5-(2,5-Difluorophenyl)-N-methyl-N-(4-methyl-5-(S-methylsulfonimidoyl)thiazol-2-yl)-2,3-dihydro-1H-indene-2-carboxamide], the IC50 in the data set on HSV-2 came out at 45 µM; in the data set with HSV-1 it was 10 µM.
